Measurements: patent publication US6306432A, “High and low load formulations of IGF-I in multivesicular liposomes” (Chiron Corporation, priority 1997, dated 2001)
Where a SMILES comes first, the peptide text is derived from it.

Assays:
[1] = Osmolarity of sucrose and glycylglycine solutions and of the first aqueous component; assay type: physicochemical
Description: Drug loading in MVLs is modulated by controlling the osmolarity of the first aqueous component used during manufacture of the MVLs. Osmolarity is the sum of the molar concentrations of solutes present in an aqueous solution. If the solute is present in a dissociated, ionized or aggregated form, osmolarity is defined as the sum of the molar concentrations of the dissociated, ionized or aggregated forms. The solutes that contribute to the osmolarity of an aqueous solution include the IGF-I, and osmotic excipients that are to be encapsulated during manufacture of MVLs. The contribution to the osmolarity of a solution made by any solute in the solution is approximately equivalent to the weight concentration of the solute in the solution (e.g., mg/mL) divided by its molecular weight. Thus, as a general principle, for a given weight concentration, the larger the molecular weight of a solute, the smaller the osmolarity of the solute, and the smaller the contribution of that solute to the overall osmolarity of the solution. It is also possible to reduce the osmolarity of the first aqueous component by reducing the concentration of the active agent. This method will lead to a lower loading of IGF-I if the concentration of other solutes in the first aqueous component remain constant.

[2] = In vivo pharmacokinetics, serum IGF-I after subcutaneous injection in rats, low load versus free IGF-I; parameters: species or system rat; details: 20 mg/kg s.c.
Protocol: In-vivo studies. The pharmacokinetic behavior of a low load MVL formulation containing IGF-I was compared to that of unencapsulated IGF-I after subcutaneous injections (lower back) in rats. 20 mg/kg doses of either free IGF-I or a MVL formulation or IGF-I prepared from a stock solution of 5 mg/ml IGF-I was injected into each rat, with 3 rats per group. Sera were collected at various times up to 8 days post injection, and assayed for IGF-I using an IGF-I ELISA kits (DSL-10-5600) (Diagnostic Systems Laboratories (DSL), Webster, Tex.) according to the manufacturer's instructions. The pharmacokinetic parameters were calculated using the WinNonlin program (Scientific Consulting Inc.) and a non-compartmental model.

[3] = Solubility of IGF-I in aqueous solution versus pH; assay type: physicochemical
Protocol: Applicants have also discovered a second parameter that must be taken into consideration in determining the composition of the first aqueous component during manufacture of the IGF-I formulations of this invention. The concentration of IGF-I in solution in the first aqueous component during manufacture is directly proportional to the amount of IGF-I that can be loaded in any give formulation. […] Further studies have shown that up to about 300 mg/mL of IGF-I can be solubilized at a pH below 5. Thus, to obtain and maintain sufficient IGF-I in solution in the first aqueous solution, a buffer or acid is also added to it during manufacture to assure a high enough concentration of dissolved IGF-I in the first aqueous component to obtain a final MVL product containing the desired loading of the drug. For the low load formulations, the pH of the first aqueous component is generally adjusted to a value within the range of 1 to about 5, while for high load formulations the pH range is between 2 and 4.8.

MG-63 cells = assay: Mitogenic bioassay, MG-63 cells, MTT stain; assay type: cell-based, human; details: standard control in mitogenic assay

Row | Compound | Osmolarity ([1]; 0.5 w/v %) [mOsm] | Osmolarity ([1]; 1.0 w/v %) [mOsm] | Osmolarity ([1]; 1.5 w/v %) [mOsm] | Osmolarity ([1]; 2.0 w/v %) [mOsm] | Osmolarity ([1]; 2.5 w/v %) [mOsm] | Osmolarity ([1]; 3.0 w/v %) [mOsm] | Osmolarity ([1]; 4.0 w/v %) [mOsm] | Osmolarity ([1]; 5.0 w/v %) [mOsm] | Osmolarity ([1]; 6.0 w/v %) [mOsm] | Osmolarity ([1]; 7.0 w/v %) [mOsm] | Osmolarity ([1]; 8.0 w/v %) [mOsm] | Time after which free IGF-I is cleared [2] | Solubility of IGF-I in aqueous solution ([3]; at a pH of about 5) | IGF-I solubilized ([3]; pH below 5) | Bioactivity of standard rhIGF-I (MG-63 cells; listed as recombinant human IGF-I) | Bioactivity of standard rhIGF-I (MG-63 cells; listed as rhIGF-I)
1 | OC[C@H]1O[C@@](CO)(O[C@H]2O[C@H](CO)[C@@H](O)[C@H](O)[C@H]2O)[C@@H](O)[C@@H]1O [sucrose] | 15 | 30 | 45 | 60 | 76 | 91 | 123 | 156 | 190 | 225 | 261 |  |  |  |  | 
2 | NCC(=O)NCC(=O)O [Glycylglycine, glycylglycine] (H-Gly-Gly-OH) | 38 | 76 | 114 | 152 | 189 | 227 | 303 | 379 | 455 | 530 | 606 |  |  |  |  | 
3 | Insulin-like Growth Factor I [IGF-I] |  |  |  |  |  |  |  |  |  |  |  | about 1 day | drops precipitously at a pH of about 5 | up to 300 mg/mL | 1.3×10^3 international units (IU)/mL | ~ 1.3×10^3 international units (IU)/mL
